Experimental data taken from article PMC12655457, “Does CytoSorb Interfere with Immunosuppression? A Pharmacokinetic and Functional Evaluation” (Pharmaceutics, 2025).

Assays:
[1] = Determination of protein binding by ultrafiltration; type: in vitro ADME; settings: human plasma, ultrafiltration 30 kDa cutoff; for fraction unbound: read-out: Protein Binding in Plasma, Current Study (converted)
Procedure: To assess protein binding of the tested immunosuppressants, human plasma was spiked with the respective drugs and urea as a freely diffusible control. Samples were then subjected to ultrafiltration (30 kDa cutoff, 15,000× g, 20 min). The protein-bound fraction was calculated using the following formula:(1) protein binding %= 1−Cfiltrate/Cplasma where cplasma is the concentration of each compound in plasma and cfiltrate is its concentration in the ultrafiltrate.

[2] = parameters: method as in earlier work; settings: literature; ref 23 (methylprednisolone), 24 (mycophenolate), 41 (6-mercaptopurine); cited from earlier work
[3] = Static CytoSorb adsorption setup (spiked plasma with CytoSorb resin); type: in vitro ADME, human; settings: plasma:resin 1:10 v/v, 60 min, 37 °C, n = 3
Procedure: Plasma was obtained by centrifugation (3500× g, 10 min) from citrate-anticoagulated human whole blood and spiked with immunosuppressants to defined target concentrations (Table 1). To evaluate adsorption, plasma was incubated with the CytoSorb resin at 1:10 (v/v) for 60 min at 37 °C on a roller mixer. In parallel, a separate aliquot of spiked plasma was incubated with autologous blood cells (1:1, v/v) to assess cellular uptake of immunosuppressants. Untreated spiked plasma served as control (Figure 1a). Samples were collected before and after incubation for subsequent analysis.
(§1) MPA was determined using a validated test for the Cobas c311 autoanalyzer from Roche (Basel, Switzerland). 6-MP was quantified by reversed-phase HPLC [17, 18]. After precipitation of the plasma sample with ice cold methanol in ratio 1:5, 30 µL of the supernatant was injected into a Nukleosil 100-5C18, 4.6 × 150 mm C18 column (Macherey-Nagel, Düren, Germany), combined with an Onyx Monolithic C18, 4.6 × 5 mm guard column (Phenomenex, Torrance, CA, USA). The mobile phase consisted of methanol and deionised water (50:50) which was continuously pumped with a flow rate of 0.8 mL/min for five minutes. 6-MP was quantified with a retention time of 2.3 min using an UV detector (325 nm). The quantification of cytokines was determined by Magnetic Luminex Assay with a human premixed Multi Analyte Kit (R&D Systems, Minneapolis, MN, USA). The urea, albumin and total protein levels were measured with the cobas c311 automated analyzer with corresponding test kits from Roche (Penzberg, Germany).

[4] = test system: human whole blood; assay: Whole blood cell model: LPS stimulation, cytokine measurement; type: cell-based; settings: + CytoSorb
Procedure: (§5) Subsequently, the blood was split into two experimental groups: one was treated with CytoSorb in a batch setup, and the other served as an untreated control, incubated under identical conditions at 37 °C on a roller mixer. Following treatment, all samples were allowed to rest for 4 h. After the resting period, blood samples were stimulated with either lipopolysaccharide (LPS) E. coli or with anti-CD3 antibodies. […] The stimulation was carried out for 4 h at 37 °C on a roller mixer. Thereafter, the blood samples were centrifuged, and the plasma was collected and stored at −80 °C. Leukocyte activation was assessed by quantification of IL-1β, IL-6, IL-8, and TNF-α.

[5] = literature; ref 21 (6-MP), 22 (CsA), 23 (MPR), 24 (MPA), 25 (TAC); cited from earlier work
[6] = Removal of immunosuppressants by chronic dialysis (ex vivo, plasma); type: in vitro ADME, human
Procedure: (§2) To evaluate the effect of dialysis under clinically relevant conditions, both chronic and acute dialysis settings were simulated using standard Fresenius systems. In all experiments, 1.5 L of citrated human plasma was dialyzed against calcium-free dialysate at 37 °C.
(§3) Prior to circulation, the systems were flushed with 2 L of isotonic saline. Plasma samples were collected at defined time points (15–480 min) and analyzed for immunosuppressants, urea, and albumin. Chronic dialysis represents intermittent high-flow conditions, whereas acute dialysis mimics continuous low-flow therapy used in critically ill patients.
(§4) The clearance (C) of each compound during both the dialysis and the dynamic CytoSorb experiments was calculated using the first-order exponential decay formula:(2) C = V/t ×lnCo/Ct where V = plasma volume, t = treatment time [min], C0 = concentration before starting treatment, Ct = concentration at time t.

[7] = Dynamic CytoSorb adsorption setup (scaled-down circuit, whole blood); type: in vitro ADME, human; settings: for mean clearance rate: CytoSorb treatment, at 15 min, Equation (2); for adsorption (removal) by CytoSorb: dynamic ex vivo circuit, 400 mL human whole blood, 30 mL cartridge, 4 h; for reduction of serum levels by CytoSorb (abstract): as stated in the abstract, experiment not specified
Procedure: To quantify the depletion of selected immunosuppressants during CytoSorb treatment under dynamic conditions, a scaled-down extracorporeal circulation system was established, consisting of a 30 mL CytoSorb adsorption cartridge and a pediatric tubing set filled with 400 mL of freshly drawn human whole blood (Figure 1b). To distinguish between drug removal by adsorption versus uptake by blood components, a control circuit with an identical setup but an empty cartridge was run in parallel for each experiment. Whole blood from two healthy donors of the same blood group was pooled, anticoagulated with citrate (final concentration: 7 mM), spiked with the immunosuppressants, and divided into two 400 mL blood bags.
Prior to circulation, the entire system was flushed with isotonic saline. Then, one of the prepared blood bags (Group 1 or Group 2) was connected to the circuit and circulated for 30 min at 37 °C without the adsorber cartridge to allow for equilibration. Following this equilibration, a baseline sample (0 min) was collected, and the adsorption column was introduced into the circuit. In the adsorption circuit, samples were collected at 15, 30, 60, 120, 180 and 240 min. In the control circuit, samples were taken at baseline and after 240 min. All blood samples were centrifuged (3500× g, 10 min) to separate plasma, which was stored at −80 °C until further analysis.
as §4, §1

[8] = Whole blood cell model: immunosuppressant serum levels after CytoSorb treatment; type: in vitro ADME, human; settings: overnight incubation, p < 0.05, n = 6
Procedure: To investigate whether the in vitro depletion of immunosuppressants by CytoSorb affects immunosuppression, a whole blood cell model was established. The experiment was conducted over two consecutive days. A graphical overview of the setup is provided in Supplementary Figure S1. On day one, freshly drawn human whole blood was incubated overnight at 37 °C with various immunosuppressants, either individually or in combination, to allow for sufficient drug exposure prior to CytoSorb treatment.
Subsequently, the blood was split into two experimental groups: one was treated with CytoSorb in a batch setup, and the other served as an untreated control, incubated under identical conditions at 37 °C on a roller mixer. Following treatment, all samples were allowed to rest for 4 h. After the resting period, blood samples were stimulated with either lipopolysaccharide (LPS) E. coli or with anti-CD3 antibodies. LPS primarily activates monocytes and neutrophils via the TLR4/CD14/MD2 complex, while anti-CD3 specifically stimulates T cells. The stimulation was carried out for 4 h at 37 °C on a roller mixer. Thereafter, the blood samples were centrifuged, and the plasma was collected and stored at −80 °C. Leukocyte activation was assessed by quantification of IL-1β, IL-6, IL-8, and TNF-α.
as §1

[9] = test system: human whole blood; assay: Whole blood cell model: anti-CD3 stimulation, cytokine measurement; type: cell-based; settings: + Anti-CD3, + CytoSorb
Procedure: as §5

[10] = Removal of immunosuppressants by acute dialysis (CVVHD, ex vivo, plasma); type: in vitro ADME, human
Procedure: as §2, §3, §4

| reduction of level in plasma by CytoSorb [3] | removal by dialysis (in words) [6] | mean clearance rate [7] | adsorption (removal) by CytoSorb [7] | reduction in serum level following CytoSorb treatment (in words) [8] | Structure (SMILES) | IL-1β serum level ([4]; test 1) | IL-6 serum level ([4]; test 1) | IL-8 serum level ([4]; test 1) | TNF-α serum level ([4]; test 1) | IL-1β serum level ([4]; test 2) | IL-6 serum level ([4]; test 2) | IL-8 serum level ([4]; test 2) | TNF-α serum level ([4]; test 2) | IL-1β serum level ([4]; test 3) | IL-6 serum level ([4]; test 3) | IL-8 serum level ([4]; test 3) | TNF-α serum level ([4]; test 3) | IL-1β serum level ([9]; test 1) | IL-6 serum level ([9]; test 1) | IL-8 serum level ([9]; test 1) | further results |
| --- | --- | --- | --- | --- | --- | --- | --- | --- | --- | --- | --- | --- | --- | --- | --- | --- | --- | --- | --- | --- | --- |
| 37 ± 6% | only slightly reduced | approximately 44 mL/min | 76 ± 2% | significant reduction | COc1c(C)c2c(c(O)c1C/C=C(\C)CCC(=O)O)C(=O)OC2 [MPA, mycophenolic acid] | 992 pg/mL | 3303 pg/mL | 4068 pg/mL | 3390 pg/mL | 112 pg/mL | 627 pg/mL | 2855 pg/mL | 1274 pg/mL | 1465 pg/mL | 16855 pg/mL | 15529 pg/mL | 720 pg/mL | 0 pg/mL | 4 pg/mL | 564 pg/mL | fraction unbound [1]: 0.021; volume of distribution (Vd) [2]: ≈ 3.6 L/kg; Protein Binding in Plasma, Reference [5]: 97 [24] %; TNF-α serum level ([9]; test 1): 107 pg/mL; IL-1β serum level ([9]; test 2): 115 pg/mL; IL-6 serum level ([9]; test 2): 645 pg/mL; IL-8 serum level ([9]; test 2): 3704 pg/mL; TNF-α serum level ([9]; test 2): 109 pg/mL; IL-1β serum level ([9]; test 3): 170 pg/mL; IL-6 serum level ([9]; test 3): 952 pg/mL; IL-8 serum level ([9]; test 3): 4924 pg/mL; TNF-α serum level ([9]; test 3): 55 pg/mL |
| 91 ± 2% | high removal | ~49 mL/min | 92 ± 3% | significant reduction | C[C@H]1C[C@@H]2[C@H]([C@@H](O)C[C@@]3(C)[C@H]2CC[C@]3(O)C(=O)CO)[C@@]2(C)C=CC(=O)C=C12 [MPR, methylprednisolone] | 354 pg/mL | 3786 pg/mL | 6337 pg/mL | 2920 pg/mL | 26 pg/mL | 73 pg/mL | 1630 pg/mL | 416 pg/mL | 190 pg/mL | 3799 pg/mL | 7104 pg/mL | 1250 pg/mL | 0 pg/mL | 1 pg/mL | 171 pg/mL | fraction unbound [1]: 0.066; volume of distribution (Vd) [2]: ≈ 1.4 L/kg; removal by dialysis (in words) [10]: moderate removal; clearance ([10]; after 8 h): below 10 mL/min; clearance ([10]; highest value reached): ≤ 28 mL/min; Protein Binding in Plasma, Reference [5]: 77 [23] %; clearance ([6]; initial values): ~ 75 mL/min; reduction of serum levels by CytoSorb (abstract) [7]: 92 ± 3%; TNF-α serum level ([9]; test 1): 43 pg/mL; IL-1β serum level ([9]; test 2): 44 pg/mL; IL-6 serum level ([9]; test 2): 16 pg/mL; IL-8 serum level ([9]; test 2): 242 pg/mL; TNF-α serum level ([9]; test 2): 57 pg/mL; IL-1β serum level ([9]; test 3): 70 pg/mL; IL-6 serum level ([9]; test 3): 30 pg/mL; IL-8 serum level ([9]; test 3): 686 pg/mL; TNF-α serum level ([9]; test 3): 41 pg/mL |
| not affected | not effectively removed | around 15 mL/min | 18 ± 16% | no significant adsorption | C=CC[C@@H]1/C=C(\C)C[C@H](C)C[C@H](OC)[C@H]2O[C@@](O)(C(=O)C(=O)N3CCCC[C@H]3C(=O)O[C@H](/C(C)=C/[C@@H]3CC[C@@H](O)[C@H](OC)C3)[C@H](C)[C@@H](O)CC1=O)[C@H](C)C[C@@H]2OC [TAC, tacrolimus] | 412 pg/mL | 7095 pg/mL | 7756 pg/mL | 1967 pg/mL | 62 pg/mL | 584 pg/mL | 2388 pg/mL | 1337 pg/mL | 646 pg/mL | 23302 pg/mL | 50044 pg/mL | 690 pg/mL | 18 pg/mL | 28 pg/mL | 1654 pg/mL | Protein Binding in Plasma, Current Study [1]: 97.9 ± 10.9%; removal by dialysis (in words) [10]: not effectively removed; clearance ([6]; throughout): below 2 mL/min; reduction of serum levels by CytoSorb (abstract) [7]: no significant effect; TNF-α serum level ([9]; test 1): 38 pg/mL; IL-1β serum level ([9]; test 2): 93 pg/mL; IL-6 serum level ([9]; test 2): 773 pg/mL; IL-8 serum level ([9]; test 2): 8613 pg/mL; TNF-α serum level ([9]; test 2): 53 pg/mL; IL-1β serum level ([9]; test 3): 268 pg/mL; IL-6 serum level ([9]; test 3): 2598 pg/mL; IL-8 serum level ([9]; test 3): 25920 pg/mL; TNF-α serum level ([9]; test 3): 85 pg/mL |
